The subject of the test is HepG2 13C-glycerol triglyceride synthesis, LC-MS, 24 h. Nature of the test: TAG formation decrease in hepatoma cells – cell-based, HepG2, LC-MS, 13C-glycerol labeling, cherry-pick, mechanism study for Trib1 inducer project, late-stage follow-up (AID 1053150). As to conditions: stronger effect = higher value; dose or concentration not given here.

For 1 compound, TAG formation rate inhibition results are on record in PubChem BioAssay AID1053150 (Broad Institute, 2014).

On to `CN1C(=O)c2cc(NC(=O)c3ccc(C(F)(F)F)cc3)ccc2OC[C@@H]2O[C@H](CC(=O)NC3Cc4ccccc4C3)CC[C@@H]21`, for which the TAG formation rate inhibition was 2%.
